Results as given in patent US10214507B2, “Carbazole-containing amides, carbamates, and ureas as cryptochrome modulators” (Reset Therapeutics, Inc., priority 2014, dated 2019).

System: db/db mouse model of type II diabetes
Assay: Single dose at peak or nadir of clock gene expression, OGTT in db/db mice
Format: in vivo
From the text: Mice were split into two study arms, to be dosed at either the peak or nadir of Cry1 and Bmal1 gene expression. […] Mice dosed at ZT10 were fasted beginning at 8:30 am in the same manner.
Significance was accepted when p<0.05.

O=C1NCCN1CC(O)Cn1c2ccc(F)cc2c2cc(F)ccc21 (stereo not shown) [Compound 72, 1-(3-(3,6-difluoro-9H-carbazol-9-yl)-2-hydroxypropyl)imidazolidin-2-one]
effect on OGTT measurement, dosed at peak of Cry1 and Bmal1 expression (single dose 50 mg/kg PO at ZT0): apparent effect
effect on OGTT measurement, dosed at nadir (single dose 50 mg/kg PO at ZT10): no effect
glucose AUC calculated from the OGTT (single dose 50 mg/kg PO at peak (ZT0), mean+/-S.E.M.): 63842+/−4318
reduction in glucose excursion (AUC) (single dose 50 mg/kg PO at peak (ZT0), vs vehicle): 14%
